The source made the active and inactive calls. The calls are words filed in the database; no cut-off is given here.

Data on two molecules can be found in ChEMBL document CHEMBL2401687, “Hypoxia induced CA9 inhibitory targeting by two different sulfonamide derivatives including acetazolamide in human glioblastoma” (Bioorg Med Chem, 2013).

For test [1], the system named is U-373MG ATCC. Particulars: Homo sapiens.
Description: Inhibition of carbonic anhydrase 9 mRNA expression in human U373 cells under hypoxic conditions at 4500 nM treated prior to hypoxic-challenge followed by compound addition 12 hrs after first treatment by RT-PCR analysis
Test [2] deals with U-87 MG. Particulars: Homo sapiens; U-87MG ATCC.
Description: Inhibition of carbonic anhydrase 9 mRNA expression in human U87MG cells under hypoxic conditions at 5000 nM treated prior to hypoxic-challenge followed by compound addition 12 hrs after first treatment by RT-PCR analysis
In test [3] the test system is U-251. In words: Inhibition of carbonic anhydrase 9 protein expression in human U251 cells under hypoxic conditions at 500 nM treated prior to hypoxic-challenge by Western blotting analysis. The class given is functional, cell-based.
For test [4], the system named is GAMG. Kind of test: Inhibition of carbonic anhydrase 9 protein expression in human GaMG cells under hypoxic conditions at 500 nM treated prior to hypoxic-challenge by Western blotting analysis. The test is classed as functional, cell-based. A general note: A western blot detects proteins with antibodies after separation by electrophoresis.
Test [5] deals with U-251. In words: Inhibition of carbonic anhydrase 9 mRNA expression in human U251 cells under hypoxic conditions at 500 nM treated prior to hypoxic-challenge by RT-PCR analysis. The class given is functional, cell-based.
The test system of test [6] is U-87 MG. Kind of test: Inhibition of carbonic anhydrase 9 mRNA expression in human U87MG cells under hypoxic conditions at 500 nM treated prior to hypoxic-challenge by RT-PCR analysis. The class given is functional, cell-based. The conditions noted are these: U-87MG ATCC.
Test [7] relates to U-373MG ATCC. In words: Inhibition of carbonic anhydrase 9 mRNA expression in human U373 cells under hypoxic conditions at 500 nM treated prior to hypoxic-challenge by RT-PCR analysis. The test is classed as functional, cell-based.
A short description of test [8]: Inhibition of carbonic anhydrase 9 protein expression in human U87MG cells under hypoxic conditions at 500 nM treated prior to hypoxic-challenge by Western blotting analysis. The class given is functional, cell-based. The conditions noted are these: U-87MG ATCC.
In test [9] the test system is GAMG. In words: Inhibition of carbonic anhydrase 9 mRNA expression in human GaMG cells under hypoxic conditions at 400 nM treated prior to hypoxic-challenge by RT-PCR analysis. The test is classed as functional, cell-based.
Test [10] can be described thus: Inhibition of carbonic anhydrase 9 protein expression in human U373 cells under hypoxic conditions at 500 nM treated prior to hypoxic-challenge by Western blotting analysis. The class given is functional, cell-based. Particulars: U-373MG ATCC.

Turning to `CC(=O)Nc1nnc(S(N)(=O)=O)s1`, the inhibition entry in test [1] and in test [2] was “Active” each time.
`CN1C(=O)[C@]2(Cc3cn([C@]45C[C@@]67SS[C@@](CO)(C(=O)N6[C@H]4Nc4ccccc45)N(C)C7=O)c4ccccc34)SS[C@@]1(CO)C(=O)N2C`: the inhibition result in [3], in test [8] and in [10] was “inactive” each time. Further, the inhibition entry in test [4], in [5], in [6], in test [7] and in [9] was “Active” each time.
